Data reported in US20230310453A1, “METHODS FOR EXTRACTING NEUTROPHIL SERINE PROTEASES AND TREATING DIPEPTIDYL PEPTIDASE 1-MEDIATED CONDITIONS” (INSMED, INC., priority 2020, published 2023).

Legend:
Type in all cases: in vivo, human
active PR3 [1] = assay: Active PR3 concentration in patients' WBC samples (kinetic PR3 assay); conditions: for % reduction from baseline in WBC samples, active PR3: week 4, reduction in arithmetic mean
Description: (§1) Except for using an exogenous peptide substrate specific for PR3 instead of NE, the PR3 kinetic assay is based on the same principle as the NE kinetic assay described above. Cleavage of PR3 Substrate by PR3 present in the sample generated the fluorophore reaction product 2-Aminobenzoyl or Anthraniloyl (Abz). The initial rate of this reaction, which is proportional to the amount of active PR3 in the sample, was measured in RFU and converted to the concentration of active PR3 in the sample. Specifically, standards were created via serial dilution of Human PR3 Stock Protein (Sigma, Cat. No SRP6309-25UG, see Table 1A) in a standard diluent which matched the ratio of lysis buffer to Enzyme Buffer (sample diluent) of the sample dilutions on a multi-well plate. Sample dilutions were created on the plate using Enzyme Buffer as the diluent. A 1:20 dilution of either DMSO or PR3 inhibitor (Abcam, Cat. No ab146184, final concentration 500 μM) in Assay Buffer was added to all wells and allowed to incubate at 37° C. for 15 minutes. Addition of DMSO was used as a placeholder in case future testing required addition of inhibitors for subtraction of nonspecific activity-induced cleavage. Following incubation, PR3 Substrate (Abz-VADCADQ-Lys(DNP), final concentration 100 μM) diluted in Assay Buffer was added to the sample and control wells in that order, and briefly mixed via pipetting 2-3 times. The plate was immediately read at 340/430 nm (Excitation/Emission) post substrate addition in kinetic mode every 5 minutes for up to 3 hours (minimum 30 minutes) at 37° C. on a BioTek Gen5 Plate Reader. The raw data of the readings were exported into an Excel file for data analysis described below.
(§2) After NE and PR3 are extracted from a WBC pellet using a multi-step repeated pellet lysis process, total NE and PR3 activity in cell lysates may be determined by individually assaying each cell lysate from each lysis step for the enzyme activity and calculating the total activity. Alternatively, the total activity may be determined by pooling the cell lysates for a single NE or PR3 activity assay. […]

active NE [2] = assay: Active NE concentration in patients' WBC samples (kinetic NE assay)
Description: (§3) In the NE kinetic assay, an exogenous peptide substrate with high specificity for NE (shown in Table 1A) was cleaved by NE present in the sample, generating a fluorophore reaction product 7-amino 4-methyl coumarin (AMC). The initial rate of this reaction, which is proportional to the amount of active NE in the sample, was measured in relative fluorescence units (RFU) and converted to the concentration of active NE in the sample. Specifically, standards were created via serial dilution of Human NE Stock Protein (Sigma, Cat. No E8140-1UN, see Table 1A) in a standard diluent, which matched the ratio of lysis buffer to Enzyme Buffer (sample diluent) of the sample dilutions on a multi-well plate. Sample dilutions were created on the plate using Enzyme Buffer as the diluent. A 1:25 dilution of either DMSO or NE inhibitor (Abcam, Cat. No ab142154, final concentration 80 μM) in Assay Buffer was added to all wells and allowed to incubate at 37° C. for 15 minutes. […] The plate was immediately read at 350/450 nm (Excitation/Emission) post substrate addition in kinetic mode every 5 minutes for up to 3 hours (minimum 30 minutes) at 37° C. on a BioTek Gen5 Plate Reader. The raw data of the readings were exported into an Excel file for data analysis described below.
as §2
(§4) In the trial, subjects were randomized in a 1:1:1 ratio to 3 treatment arms to receive either (i) 10 mg brensocatib once daily; (ii) 25 mg brensocatib once daily, or (iii) matching placebo once daily. […] The time to the first pulmonary exacerbation (primary end point), the rate of pulmonary exacerbations (secondary end point), change in concentration of active NE in sputum, and safety were assessed. […]

active NE [3] = assay: Active NE concentration in patients' sputum samples; conditions: for % reduction from baseline in sputum samples, active NE: week 4, reduction in geometric mean
Description: as §3, §4
(§5) In this example, we further determined the changes from baseline in the concentrations of active PR3 and CatG in the same sputum samples obtained from the patients in the three treatment arms using the kinetic PR3 and CatG assays described in the previous examples, and compared the changes with those of active NE. […]

active PR3 [4] = assay: Active PR3 concentration in patients' sputum samples (kinetic PR3 assay); conditions: for % reduction from baseline in sputum samples, active PR3: week 4, reduction in geometric mean
Description: as §1, with “Addition of DMSO was used as a placeholder in case future testing required addition of inhibitors for subtraction of nonspecific activity-induced cleavage. Following incubation, PR3 Substrate (Abz-VADCADQ-Lys(DNP), final concentration 100 μM) diluted in Assay Buffer was added to the sample and control wells in that order, and briefly mixed via pipetting 2-3 times.” left out
as §4, §5

[5] = system: patients with non-cystic fibrosis bronchiectasis (NCFBE); assay: Phase 2 randomized, double-blind, placebo-controlled trial: pulmonary exacerbations; conditions: for reduction in the frequency of pulmonary exacerbations as compared to placebo: once daily 24 weeks; for time to the first pulmonary exacerbation (primary end point): vs placebo
Source text: We have conducted a phase 2, randomized, double-blind, placebo-controlled trial to assess the efficacy, safety and tolerability, and pharmacokinetics of (2S)—N-{(1S)-1-cyano-2-[4-(3-methyl-2-oxo-2,3-dihydro-1,3-benzoxazol-5-yl) phenyl] ethyl}-1,4-oxazepane-2-carboxamide (brensocatib) administered once daily for 24 weeks in patients with non-cystic fibrosis bronchiectasis (NCFBE). See the details and results of the trial in N Engl J Med. 383(22):2127-2137 (2020); incorporated herein by reference in its entirety for all purposes.
In the trial, subjects were randomized in a 1:1:1 ratio to 3 treatment arms to receive either (i) 10 mg brensocatib once daily; (ii) 25 mg brensocatib once daily, or (iii) matching placebo once daily. Following a screening visit (Visit 1) and a screening period of up to 6 weeks, subjects were randomized at Visit 2 (Day 1, “Baseline”) and returned thereafter for study visits at 2 weeks (Visit 3), 4 weeks (Visit 4), 8 weeks (Visit 5), 12 weeks (Visit 6), 16 weeks (Visit 7), 20 weeks (Visit 8), 24 weeks (Visit 9, end of treatment) and 28 weeks (Visit 10, end of study). During each visit, assessments and procedures were performed, including collection of blood and sputum samples at baseline and weeks 2, 4, 12, 24, and 28 for biomarker assessment. Study treatment occurred between Visits 2-9. The time to the first pulmonary exacerbation (primary end point), the rate of pulmonary exacerbations (secondary end point), change in concentration of active NE in sputum, and safety were assessed. […] Specifically, patients treated with brensocatib experienced a 36% reduction in the 10 mg arm (p=0.04) and a 25% reduction in the 25 mg arm (p=0.17).

active CatG = assay: Active CatG concentration in patients' sputum samples (kinetic CatG assay); conditions: for % reduction from baseline in sputum samples, active CatG: week 4, reduction in geometric mean
Description: CatG activity was measured in an enzymatic assay using an exogenous peptide substrate. Cleavage of the substrate generated the chromophore or fluorophore reaction product, p-Nitroaniline (pNA), 6-Carboxytetramethylrhodamine (6-TAMRA) or 7-Methoxycoumarin-4-acetic acid (MCA). The initial rate of this reaction is proportional to the amount of active CatG in a sample and was measured in absorbance (ABS) or fluorescence (RFU), depending on the substrate, and converted to the concentration of active CatG in the sample. Specifically, standards were created via serial dilution of stock human CatG protein (Sigma, Cat. No C4428-.25UN) in a standard diluent which matched the ratio of lysis buffer to Enzyme Buffer (sample diluent) of the sample dilutions on plate. Sample dilutions were created on the plate using Enzyme Buffer as the diluent and/or run neat. […] The plate was immediately read at appropriate wavelength according to Table 1B post substrate addition in kinetic mode every 5 minutes for 1.5 hours at 37° C. on a BioTek's Synergy Neo or BioTek's Synergy HIM plate reader with Gen5 Software. […]
as §4
as §5, with “NE. Additionally, we extracted NE and PR3 from the white blood cells (WBCs) derived from the patients' blood samples, and determined the changes from baseline in the concentrations of active NE and PR3 in the WBC samples using the methods described in Example 7.” for “NE.”

Cn1c(=O)oc2ccc(-c3ccc(C[C@@H](C#N)NC(=O)[C@@H]4CNCCCO4)cc3)cc21 [brensocatib, (2S)—N-{(1S)-1-cyano-2-[4-(3-methyl-2-oxo-2,3-dihydro-1,3-benzoxazol-5-yl)phenyl]ethyl}-1,4-oxazepane-2-carboxamide]
change from baseline in concentration of active PR3 in WBC samples (time course) (active PR3 [1]; 10 mg and 25 mg arms, FIG. 14B): reduced by brensocatib treatment to a lesser extent than the active NE concentrations | % reduction from baseline in WBC samples, active PR3 (active PR3 [1]; 10 mg daily): No reduction | % reduction from baseline in WBC samples, active PR3 (active PR3 [1]; 25 mg daily): 34% | change from baseline in concentration of active NE in WBC samples (time course) (active NE [2]; 10 mg and 25 mg arms, 24-week treatment, FIG. 14A): reduced by brensocatib treatment by week 4 in a dose-dependent manner | % reduction from baseline in WBC samples, active NE (active NE [2]; 10 mg daily, week 4, reduction in arithmetic mean): 19% | time for reduced active NE concentrations in WBC samples to recover to baseline levels after the end of the treatment period (active NE [2]; after 24-week treatment, FIG. 14A): about 4 weeks | change from baseline in sputum concentration of active NE (time course) (active NE [3]; 10 mg and 25 mg arms, FIG. 13A): reduced by brensocatib treatment by week 4 in a dose-dependent manner | % reduction from baseline in sputum samples, active NE (active NE [3]; 10 mg daily): 86% | % reduction from baseline in sputum samples, active NE (active NE [3]; 25 mg daily): 91% | change from baseline in sputum concentration of active PR3 (time course) (active PR3 [4]; 10 mg and 25 mg arms, FIG. 13B): reduced by brensocatib treatment by week 4 in a dose-dependent manner | % reduction from baseline in sputum samples, active PR3 (active PR3 [4]; 10 mg daily): 21% | % reduction from baseline in sputum samples, active PR3 (active PR3 [4]; 25 mg daily): 53% | reduction in the frequency of pulmonary exacerbations as compared to placebo ([5]; 10 mg arm, p=0.04): 36% | time to the first pulmonary exacerbation (primary end point) ([5]; 10 mg once daily for 24 weeks, p=0.03): prolonged the time to the first exacerbation | reduction in the frequency of pulmonary exacerbations as compared to placebo ([5]; 25 mg arm, p=0.17): 25% | time to the first pulmonary exacerbation (primary end point) ([5]; 25 mg once daily for 24 weeks, p=0.04): prolonged the time to the first exacerbation | change from baseline in sputum concentration of active CatG (time course) (active CatG; 10 mg and 25 mg arms, FIG. 13C): reduced by brensocatib treatment by week 4 in a dose-dependent manner | % reduction from baseline in sputum samples, active CatG (active CatG; 10 mg daily): 90% | % reduction from baseline in sputum samples, active CatG (active CatG; 25 mg daily): 93%
